In ChEMBL document CHEMBL1201862, “PubChem BioAssay data set” (2004):
Active and inactive are the calls of the source.

Assays:
[1] = molecular target: T1, Microphthalmia-associated transcription factor (Homo sapiens, UniProt O75030); experiment: TRPM1 promoter luciferase signal decrease, dose response, MITF inhibitor project, cell-based, SK-MEL-5, cherry-picked, set 3 (AID 493073); format: functional
T1 sequence (O75030 whole entry): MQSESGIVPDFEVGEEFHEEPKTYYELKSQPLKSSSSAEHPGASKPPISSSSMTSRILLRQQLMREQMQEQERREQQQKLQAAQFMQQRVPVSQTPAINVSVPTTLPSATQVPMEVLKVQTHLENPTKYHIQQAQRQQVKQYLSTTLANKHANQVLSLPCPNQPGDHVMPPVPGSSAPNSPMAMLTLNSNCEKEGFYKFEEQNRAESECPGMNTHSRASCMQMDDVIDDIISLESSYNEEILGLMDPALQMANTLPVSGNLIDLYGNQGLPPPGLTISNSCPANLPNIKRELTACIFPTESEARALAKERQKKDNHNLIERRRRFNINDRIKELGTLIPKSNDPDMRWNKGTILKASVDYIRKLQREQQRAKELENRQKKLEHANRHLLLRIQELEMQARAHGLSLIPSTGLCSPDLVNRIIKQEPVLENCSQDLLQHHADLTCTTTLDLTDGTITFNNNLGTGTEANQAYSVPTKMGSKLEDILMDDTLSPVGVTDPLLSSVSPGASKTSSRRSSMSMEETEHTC

[2] = inhibitors of firefly luciferase expression or activity, dose response, H4 neuroglioma cells, luminescence (AID 1990); format: functional, cell-based
A-375 [3] = experiment: A375 melanoma cell viability reduction, dose response, counter-screen for MITF modulator project, cherry-pick samples, set 2 (AID 540335); format: functional, cell-based; details: Homo sapiens
[4] = inhibitors of SNCA 5'UTR-driven reporter translation, confirmation, H4 neuroglioma cells, luminescence (AID 1988); format: functional, cell-based
A-375 [5] = experiment: MITF: Counter assay: A375 proliferation Measured in Cell-Based System Using Plate Reader - 2084-03_Inhibitor_Dose_DryPowder_Activity. [Related pubchem assays (depositor defined):AID488944]; format: functional; details: Homo sapiens
[6] = Luminescence Cell-Based Dose Response HTS to Identify Inhibitors of 5'UTR Stem-Loop Driven Prion Protein mRNA Translation in H4 Neuroglioblastoma Cells. [Related pubchem assays: 1827 (Project Summary), 1813 (Primary HTS)]; format: functional
[7] = molecular target: T2, Acyl-homoserine lactone acylase PvdQ (Pseudomonas aeruginosa (strain LESB58), UniProt Q9I194); experiment: P. aeruginosa PvdQ acylase inhibitors, dose response, biochemical, fluorescence, plate reader and imaging, cherry-picks (AID 493231)
T2 sequence (Q9I194 whole entry): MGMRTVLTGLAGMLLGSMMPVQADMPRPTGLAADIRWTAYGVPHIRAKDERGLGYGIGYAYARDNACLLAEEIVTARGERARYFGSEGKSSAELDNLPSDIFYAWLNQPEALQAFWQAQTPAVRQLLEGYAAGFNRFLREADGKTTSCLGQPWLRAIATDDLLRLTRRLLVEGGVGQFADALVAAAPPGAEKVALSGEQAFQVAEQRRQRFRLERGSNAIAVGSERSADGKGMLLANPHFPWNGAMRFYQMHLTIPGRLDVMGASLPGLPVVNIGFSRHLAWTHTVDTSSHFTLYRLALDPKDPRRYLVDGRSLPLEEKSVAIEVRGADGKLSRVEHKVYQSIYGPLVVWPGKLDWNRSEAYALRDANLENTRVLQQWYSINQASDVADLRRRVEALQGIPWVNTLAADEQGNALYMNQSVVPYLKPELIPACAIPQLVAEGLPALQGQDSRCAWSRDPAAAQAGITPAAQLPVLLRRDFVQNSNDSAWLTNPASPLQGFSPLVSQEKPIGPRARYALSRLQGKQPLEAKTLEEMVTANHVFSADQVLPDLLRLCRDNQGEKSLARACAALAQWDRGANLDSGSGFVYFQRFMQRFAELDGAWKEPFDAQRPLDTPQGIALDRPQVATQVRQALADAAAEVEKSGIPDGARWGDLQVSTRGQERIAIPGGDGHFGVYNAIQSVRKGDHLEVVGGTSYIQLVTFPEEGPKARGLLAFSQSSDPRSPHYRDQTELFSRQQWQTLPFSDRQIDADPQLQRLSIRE

HeLa = experiment: HeLa cell cytotoxicity, dose response, cytotoxicity control, 48 h, plate reader, cherry-picks (AID 504942); format: functional, cell-based; details: Homo sapiens
HEK293 [8] = experiment: cytotoxicity in HEK293T NF-kB-Luc cells, SAR follow-up, cytotoxicity control for NF-kB activator project, cell-based, resazurin fluorescence (AID 493251); format: functional; details: Homo sapiens
Jurkat = experiment: SAR Analysis of small molecule inhibitors of […] specific antigen receptor-induced NF-kB activation in a Jurkat cell line using a luminescence assay - Set 3. [Related pubchem assays (depositor defined):AID435022, AID435025, AID465]; format: functional, cell-based; details: Homo sapiens
HEK293 [9] = experiment: SAR Analysis of small molecule inhibitors of B-cell specific antigen receptor-induced NF-kB activation in a HEK-293T cell line using a luminescence assay - Set 2. [Related pubchem assays (depositor defined):AID435022, AID435025, AID489021]; format: functional, cell-based; details: Homo sapiens
[10] = molecular target: Dual specificity protein kinase CLK1 (Homo sapiens, UniProt P49759); experiment: CLK1 kinase inhibitors, off-target check, dose response, selectivity assay for Dyrk1A inhibitor project, biochemical, cherry-picked samples (AID 588811)
Hexokinase HKDC1 = Hexokinase HKDC1 (Homo sapiens, UniProt Q2TB90); experiment: SAR analysis of small molecule inhibitors of hexokinase domain containing I (HKDC1). [Related pubchem assays (depositor defined):AID493160, AID493190]; format: functional
Hexokinase-1 = Hexokinase-1 (Homo sapiens, UniProt P19367); experiment: SAR analysis of small molecule inhibitors of hexokinase domain containing I (HKDC1) in the hexokinase 1 selectivity assay. [Related pubchem assays (depositor defined):AID493160, AID493190]; format: functional
SUMO-activating enzyme [11] = molecular target: T3, SUMO-activating enzyme (Homo sapiens, UniProt Q9UBT2); experiment: SUMOylation inhibitor hit validation, confirmation, SUMOylation inhibitor project, biochemical, AlphaScreen (AID 2018); format: functional
SUMO-activating enzyme [12] = molecular target: T3, SUMO-activating enzyme; experiment: inhibitors of in vitro SUMOylation cascade, primary screen, biochemical, HTRF, uHTS (AID 2006); format: protein-complex assay
[13] = NIH-3T3 fibroblast cytotoxicity, dose response, cytotoxicity control, cell-based, fluorescence, Alamar Blue, secondary assay (AID 2327); format: functional;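 further: NIH-3T3 mouse fibroblasts cultured with fluconazole at 8 µg/mL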
Vero = Vero cell cytotoxicity, cytotoxicity control for flavivirus capping enzyme inhibitors (AID 588742); format: functional; details: Chlorocebus sabaeus
[14] = molecular target: ATP-dependent molecular chaperone HSP82 (Candida albicans (strain WO-1) (Yeast), UniProt C4YTQ8); experiment: loss of DOC-induced GRE-beta-galactosidase reporter signal, dose response, Hsp90 inhibitor project, S. cerevisiae, luminescence (AID 2400); format: functional, cell-based;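 further: beta-galactosidase luminescence from glucocorticoid response element reporter as proxy for Hsp90 function; inhibitor potency where signal loss means Hsp90 inhibition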
[15] = C. albicans growth with fluconazole, confirmation, fluorescence, retest (AID 2467); format: functional, cell-based
[16] = molecular target: T4, Mannose-6-phosphate isomerase (Homo sapiens, UniProt P34949); experiment: human PMI inhibitors, high substrate, primary screen, biochemical, fluorescence intensity, high mannose 6-phosphate (AID 1220)
T4 sequence (P34949 whole entry): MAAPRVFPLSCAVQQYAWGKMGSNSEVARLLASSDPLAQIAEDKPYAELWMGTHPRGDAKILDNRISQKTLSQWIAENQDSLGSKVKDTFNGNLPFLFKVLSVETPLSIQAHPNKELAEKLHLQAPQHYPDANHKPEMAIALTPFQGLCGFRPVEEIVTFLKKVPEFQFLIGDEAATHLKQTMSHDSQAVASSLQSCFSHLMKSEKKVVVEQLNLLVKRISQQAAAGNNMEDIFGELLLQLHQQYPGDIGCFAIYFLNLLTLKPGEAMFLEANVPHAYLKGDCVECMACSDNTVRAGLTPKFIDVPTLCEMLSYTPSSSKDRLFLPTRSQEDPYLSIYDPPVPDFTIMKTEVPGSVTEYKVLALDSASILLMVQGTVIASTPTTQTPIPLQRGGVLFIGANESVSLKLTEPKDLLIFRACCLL

[17] = molecular target: Serine/threonine-protein phosphatase (Candida dubliniensis (strain CD36 / CBS 7987 / NCPF 3949 / NRRLY-17841) (Yeast), UniProt B9W6M3); experiment: calcineurin pathway inhibitors in yeast reporter, dose response, S. cerevisiae, CDRE-lacZ, luminescence, secondary (AID 2388); format: functional, cell-based;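 further: yeast reporter cells carrying a calcineurin-responsive lacZ construct stimulated with calcium chloride; luminescent beta-galactosidase reporter signal in whole cells rather than isolated phosphatase activity; potency for inhibition where a drop in reporter signal means calcineurin blockade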
[18] = molecular target: T5, Histone-lysine N-methyltransferase NSD2 (Homo sapiens, UniProt O96028); format: biochemical
T5 sequence (O96028 whole entry): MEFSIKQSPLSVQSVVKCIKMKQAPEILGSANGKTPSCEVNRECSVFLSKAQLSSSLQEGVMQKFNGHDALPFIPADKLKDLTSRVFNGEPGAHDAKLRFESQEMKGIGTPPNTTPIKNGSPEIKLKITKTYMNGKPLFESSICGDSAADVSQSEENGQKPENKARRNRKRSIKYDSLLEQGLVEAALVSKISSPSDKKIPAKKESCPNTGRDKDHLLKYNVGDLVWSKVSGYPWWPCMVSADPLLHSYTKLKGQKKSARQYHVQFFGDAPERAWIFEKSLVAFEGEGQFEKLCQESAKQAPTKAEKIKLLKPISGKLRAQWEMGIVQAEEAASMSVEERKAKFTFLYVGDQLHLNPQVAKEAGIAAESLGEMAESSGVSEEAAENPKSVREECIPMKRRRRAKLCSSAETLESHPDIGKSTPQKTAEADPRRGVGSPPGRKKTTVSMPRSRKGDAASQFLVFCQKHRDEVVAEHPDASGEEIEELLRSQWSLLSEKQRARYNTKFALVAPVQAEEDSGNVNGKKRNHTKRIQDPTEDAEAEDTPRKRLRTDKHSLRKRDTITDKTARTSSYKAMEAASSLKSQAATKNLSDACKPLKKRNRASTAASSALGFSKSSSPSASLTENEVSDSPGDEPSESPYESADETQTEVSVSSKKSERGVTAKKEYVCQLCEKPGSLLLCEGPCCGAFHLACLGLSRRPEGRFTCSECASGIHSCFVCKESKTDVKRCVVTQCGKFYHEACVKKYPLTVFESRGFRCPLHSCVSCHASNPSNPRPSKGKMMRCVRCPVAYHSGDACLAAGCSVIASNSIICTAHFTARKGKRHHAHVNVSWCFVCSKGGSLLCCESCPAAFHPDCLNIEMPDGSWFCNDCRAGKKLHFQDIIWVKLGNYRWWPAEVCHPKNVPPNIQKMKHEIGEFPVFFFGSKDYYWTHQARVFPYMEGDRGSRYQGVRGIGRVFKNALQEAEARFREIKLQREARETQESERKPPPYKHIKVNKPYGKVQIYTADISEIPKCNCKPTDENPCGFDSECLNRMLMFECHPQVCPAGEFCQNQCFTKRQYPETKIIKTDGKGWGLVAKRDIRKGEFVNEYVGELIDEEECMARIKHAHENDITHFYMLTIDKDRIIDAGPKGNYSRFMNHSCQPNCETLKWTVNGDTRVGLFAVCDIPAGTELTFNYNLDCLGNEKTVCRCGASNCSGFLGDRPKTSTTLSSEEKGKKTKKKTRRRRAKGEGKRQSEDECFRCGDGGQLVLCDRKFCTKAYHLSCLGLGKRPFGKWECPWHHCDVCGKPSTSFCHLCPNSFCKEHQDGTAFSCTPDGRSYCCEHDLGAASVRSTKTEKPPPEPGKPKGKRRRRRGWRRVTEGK

[19] = molecular target: Voltage-gated inwardly rectifying potassium channel KCNH2 (Homo sapiens, UniProt Q12809); details: Potency;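 further: confirmatory quantitative high-throughput screen measuring inhibition of hERG channel activity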

T3 sequence (Q9UBE0 whole entry): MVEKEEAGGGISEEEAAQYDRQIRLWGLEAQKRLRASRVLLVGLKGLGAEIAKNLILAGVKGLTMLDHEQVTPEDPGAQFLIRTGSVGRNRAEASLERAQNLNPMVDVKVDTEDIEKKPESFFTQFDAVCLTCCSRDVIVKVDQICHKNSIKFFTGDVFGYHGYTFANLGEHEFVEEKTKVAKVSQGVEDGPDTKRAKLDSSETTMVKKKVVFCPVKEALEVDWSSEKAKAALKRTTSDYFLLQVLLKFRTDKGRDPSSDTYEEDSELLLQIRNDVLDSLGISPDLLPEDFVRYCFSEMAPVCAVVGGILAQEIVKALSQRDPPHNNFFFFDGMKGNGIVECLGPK
T3 sequence (Q9UBT2 whole entry): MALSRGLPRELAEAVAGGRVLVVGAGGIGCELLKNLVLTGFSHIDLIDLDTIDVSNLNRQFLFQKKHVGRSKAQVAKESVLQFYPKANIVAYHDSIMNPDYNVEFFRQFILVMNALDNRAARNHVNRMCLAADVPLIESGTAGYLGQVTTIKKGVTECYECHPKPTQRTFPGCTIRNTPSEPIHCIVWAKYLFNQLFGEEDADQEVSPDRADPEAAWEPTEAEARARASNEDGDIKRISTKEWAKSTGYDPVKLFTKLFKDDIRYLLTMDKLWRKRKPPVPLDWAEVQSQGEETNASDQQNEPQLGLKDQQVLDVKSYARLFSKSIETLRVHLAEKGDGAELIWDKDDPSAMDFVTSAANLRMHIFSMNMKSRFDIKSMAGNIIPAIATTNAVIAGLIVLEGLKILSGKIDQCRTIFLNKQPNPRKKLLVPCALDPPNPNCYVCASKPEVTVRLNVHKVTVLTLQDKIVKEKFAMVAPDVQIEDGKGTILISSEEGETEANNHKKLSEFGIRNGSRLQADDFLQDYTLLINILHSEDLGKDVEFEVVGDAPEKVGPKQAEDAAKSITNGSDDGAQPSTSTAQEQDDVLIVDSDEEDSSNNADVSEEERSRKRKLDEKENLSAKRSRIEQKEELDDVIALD
Chain of ATP-dependent molecular chaperone HSP82 (C4YTQ8 whole entry): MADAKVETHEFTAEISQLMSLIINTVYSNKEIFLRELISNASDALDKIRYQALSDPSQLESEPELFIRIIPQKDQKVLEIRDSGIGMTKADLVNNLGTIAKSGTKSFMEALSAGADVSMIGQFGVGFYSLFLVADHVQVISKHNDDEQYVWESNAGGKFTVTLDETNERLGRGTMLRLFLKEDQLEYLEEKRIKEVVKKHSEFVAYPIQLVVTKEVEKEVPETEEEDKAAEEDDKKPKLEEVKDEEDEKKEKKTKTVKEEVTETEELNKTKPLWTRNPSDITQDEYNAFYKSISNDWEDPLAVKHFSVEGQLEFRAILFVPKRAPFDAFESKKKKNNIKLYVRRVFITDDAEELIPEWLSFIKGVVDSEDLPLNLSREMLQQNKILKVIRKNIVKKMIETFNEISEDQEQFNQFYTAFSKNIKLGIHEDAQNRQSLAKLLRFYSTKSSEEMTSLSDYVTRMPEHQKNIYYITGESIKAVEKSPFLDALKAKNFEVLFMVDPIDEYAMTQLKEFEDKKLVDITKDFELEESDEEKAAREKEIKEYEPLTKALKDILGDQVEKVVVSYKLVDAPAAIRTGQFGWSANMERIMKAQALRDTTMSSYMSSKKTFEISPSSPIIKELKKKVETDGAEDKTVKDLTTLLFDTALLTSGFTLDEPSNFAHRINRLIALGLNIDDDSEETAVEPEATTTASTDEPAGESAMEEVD
Chain of Serine/threonine-protein phosphatase (B9W6M3 whole entry): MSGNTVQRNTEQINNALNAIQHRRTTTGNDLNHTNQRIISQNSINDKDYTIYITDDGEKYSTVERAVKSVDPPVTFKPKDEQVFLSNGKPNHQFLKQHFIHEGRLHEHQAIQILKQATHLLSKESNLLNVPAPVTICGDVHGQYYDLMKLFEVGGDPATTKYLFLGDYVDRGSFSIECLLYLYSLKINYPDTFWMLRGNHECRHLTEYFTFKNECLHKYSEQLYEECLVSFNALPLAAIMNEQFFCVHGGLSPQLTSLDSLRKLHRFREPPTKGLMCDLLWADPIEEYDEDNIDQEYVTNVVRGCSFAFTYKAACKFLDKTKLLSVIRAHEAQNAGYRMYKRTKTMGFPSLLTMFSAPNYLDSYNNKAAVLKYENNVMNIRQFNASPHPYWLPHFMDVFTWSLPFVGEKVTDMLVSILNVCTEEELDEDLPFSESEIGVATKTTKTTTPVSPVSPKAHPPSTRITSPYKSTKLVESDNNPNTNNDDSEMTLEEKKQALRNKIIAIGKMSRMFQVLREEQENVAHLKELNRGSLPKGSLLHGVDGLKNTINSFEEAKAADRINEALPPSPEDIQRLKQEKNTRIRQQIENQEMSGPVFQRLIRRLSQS
Chain of Dual specificity protein kinase CLK1 (P49759 whole entry, the tested form may be a part): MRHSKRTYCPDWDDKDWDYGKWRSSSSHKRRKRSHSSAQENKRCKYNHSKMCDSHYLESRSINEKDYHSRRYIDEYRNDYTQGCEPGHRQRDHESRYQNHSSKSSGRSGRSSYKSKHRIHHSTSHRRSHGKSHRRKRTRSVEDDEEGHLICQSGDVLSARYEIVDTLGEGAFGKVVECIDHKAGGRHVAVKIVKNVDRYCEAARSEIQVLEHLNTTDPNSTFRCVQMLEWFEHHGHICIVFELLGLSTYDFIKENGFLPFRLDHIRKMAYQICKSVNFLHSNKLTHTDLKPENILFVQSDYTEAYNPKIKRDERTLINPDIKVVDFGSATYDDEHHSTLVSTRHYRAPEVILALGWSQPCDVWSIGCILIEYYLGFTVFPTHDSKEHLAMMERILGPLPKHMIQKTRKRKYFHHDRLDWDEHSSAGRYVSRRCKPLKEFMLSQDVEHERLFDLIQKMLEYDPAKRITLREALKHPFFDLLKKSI
Chain of Hexokinase HKDC1 (Q2TB90 whole entry, the tested form may be a part): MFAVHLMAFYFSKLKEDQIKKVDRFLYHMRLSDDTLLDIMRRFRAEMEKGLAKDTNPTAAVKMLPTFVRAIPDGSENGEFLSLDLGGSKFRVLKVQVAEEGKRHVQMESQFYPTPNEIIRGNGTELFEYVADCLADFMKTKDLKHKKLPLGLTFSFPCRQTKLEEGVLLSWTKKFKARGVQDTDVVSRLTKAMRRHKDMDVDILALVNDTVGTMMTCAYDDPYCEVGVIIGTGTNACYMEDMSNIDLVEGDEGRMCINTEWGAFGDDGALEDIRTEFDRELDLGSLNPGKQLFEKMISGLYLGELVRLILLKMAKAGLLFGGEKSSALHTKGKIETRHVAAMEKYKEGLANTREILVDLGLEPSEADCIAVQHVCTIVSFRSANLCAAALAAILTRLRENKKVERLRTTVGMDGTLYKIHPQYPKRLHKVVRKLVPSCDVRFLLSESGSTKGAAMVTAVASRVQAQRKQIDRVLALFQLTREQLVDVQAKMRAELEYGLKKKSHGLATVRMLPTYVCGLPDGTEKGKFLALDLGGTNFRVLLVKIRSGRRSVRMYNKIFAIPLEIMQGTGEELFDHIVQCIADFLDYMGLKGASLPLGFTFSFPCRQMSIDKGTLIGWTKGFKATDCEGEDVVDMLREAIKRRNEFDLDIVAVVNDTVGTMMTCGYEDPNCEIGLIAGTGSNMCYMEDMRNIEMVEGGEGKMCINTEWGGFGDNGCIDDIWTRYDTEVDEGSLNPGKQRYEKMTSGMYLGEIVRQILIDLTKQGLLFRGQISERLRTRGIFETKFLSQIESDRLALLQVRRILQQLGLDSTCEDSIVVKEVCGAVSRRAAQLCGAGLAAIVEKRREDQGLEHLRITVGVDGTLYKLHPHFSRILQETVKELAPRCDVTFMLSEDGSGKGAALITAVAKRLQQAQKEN
Chain of Hexokinase-1 (P19367 whole entry, the tested form may be a part): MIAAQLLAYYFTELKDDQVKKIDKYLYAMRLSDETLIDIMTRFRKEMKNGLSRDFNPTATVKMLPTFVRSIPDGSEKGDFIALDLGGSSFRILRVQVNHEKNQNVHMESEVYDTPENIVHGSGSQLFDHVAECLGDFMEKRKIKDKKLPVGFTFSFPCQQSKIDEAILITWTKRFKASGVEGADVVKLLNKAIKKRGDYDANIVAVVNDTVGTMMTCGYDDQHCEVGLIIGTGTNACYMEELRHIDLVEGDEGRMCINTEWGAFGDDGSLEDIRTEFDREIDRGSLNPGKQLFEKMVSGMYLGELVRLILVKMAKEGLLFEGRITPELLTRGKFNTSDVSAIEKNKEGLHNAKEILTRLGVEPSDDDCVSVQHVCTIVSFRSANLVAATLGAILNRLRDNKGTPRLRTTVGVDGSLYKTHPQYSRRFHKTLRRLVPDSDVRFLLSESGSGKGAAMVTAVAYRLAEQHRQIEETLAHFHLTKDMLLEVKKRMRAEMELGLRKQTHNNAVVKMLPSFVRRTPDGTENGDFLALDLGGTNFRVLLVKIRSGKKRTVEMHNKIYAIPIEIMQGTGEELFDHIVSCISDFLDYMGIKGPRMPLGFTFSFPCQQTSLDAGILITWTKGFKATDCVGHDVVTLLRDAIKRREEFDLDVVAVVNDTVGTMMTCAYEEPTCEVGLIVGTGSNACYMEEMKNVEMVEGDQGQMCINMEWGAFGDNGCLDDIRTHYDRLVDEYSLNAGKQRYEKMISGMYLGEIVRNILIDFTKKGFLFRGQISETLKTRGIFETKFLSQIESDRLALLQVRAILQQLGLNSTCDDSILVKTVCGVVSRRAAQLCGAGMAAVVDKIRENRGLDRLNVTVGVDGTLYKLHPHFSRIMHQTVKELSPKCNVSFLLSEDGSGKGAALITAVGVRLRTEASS

SMILES: CC(=O)c1ccc(S(=O)(=O)N2CCN(C(=O)/C=C/c3ccc4ccccc4n3)CC2)cc1
- AC50 [1]: 12 µM (active)
- EC50 [2]: 13.4 µM (active)
- AC50 (A-375 [3]): > 35 µM (active)
- EC50 [4]: 10.3 µM (active)
- AC50 (A-375 [5]): > 35 µM (active)
- EC50 [6]: 11.8 µM (active)

SMILES: COc1ccc(-c2cc3ncccc3cn2)cc1
- AC50 [7]: 7.13 µM (active)
- AC50 (HeLa): 72.9 µM (active)

SMILES: CCOc1ccc(-c2nc(CSCC(=O)NCC3CCCO3)c(C)o2)cc1 (centres undefined)
- IC50 (HEK293 [8]): > 80 µM (inactive)
- IC50 (Jurkat): > 80 µM (inactive)
- IC50 (HEK293 [9]): 67.7 µM (inactive)

SMILES: Clc1ccc(CNc2nccc(-c3ccc4c(c3)OCCO4)n2)cc1Cl
- AC50 [10]: 0.0206 µM (active)

SMILES: Cc1ccc(S(=O)(=O)Nc2cc(SCCC(=O)O)c(O)c3ccccc23)cc1
- IC50 (Hexokinase HKDC1): 10 µM (active)
- IC50 (Hexokinase-1): > 80 µM (inactive)

SMILES: CN(C)c1cc(N/N=C/c2ccc(Cl)cc2)nc(N(C)C)n1
- IC50 (SUMO-activating enzyme [11]): 1 µM (active)
- IC50 (SUMO-activating enzyme [12]): 14.2 µM (active)
- EC50 [13]: > 160 µM (inactive)
- CC50 (Vero): > 40 µM (active)
- EC50 [14]: > 160 µM (inactive)
- EC50 [15]: 0.401 µM (active)
- IC50 [16]: > 50 µM (not active)
- EC50 [17]: > 180 µM (inactive)
- AC50 [18]: 6.18 µM (active)

SMILES: COC(=O)c1c(-c2cc(OC)c(OC)c(OC)c2)c2ccc(OCc3ccccn3)cc2c(=O)n1-c1ccc(N)cc1
- AC50 [19]: 5.62 µM (inconclusive)
